We go through seven molecules from ChEMBL document CHEMBL3407468, “Novel 5-substituted pyrrolo[2,3-d]pyrimidines as dual inhibitors of glycinamide ribonucleotide formyltransferase and 5-aminoimidazole-4-carboxamide ribonucleotide formyltransferase and as potential antitumor agents” (J Med Chem, 2015).

pIC50: −log10 of the molar value. Calls of active or inactive are those of the source. The rule behind the calls is not given here.

Assay [1] relates to R2. Nature of the assay: Cytotoxicity against RFC-deficient Chinese hamster R2 cells assessed as growth inhibition after 96 hrs by CellTiter-Blue assay. The assay is classed as cell-based. The following applies: Cricetulus griseus, R2, 96 h. In general terms: Resazurin is reduced to fluorescent resorufin, in cell work by metabolically active cells.
Assay [2] is described as follows: Cytotoxicity against PCFT-deficient Chinese hamster R2(VC) cells assessed as growth inhibition after 96 hrs by CellTiter-Blue assay. The assay is classed as cell-based. Particulars: Cricetulus griseus.
Assay [3] has as its system KB. Nature of the assay: Antiproliferative activity against human KB cells expressing RFC/FRalpha/PCFT after 96 hrs by CellTiter-Blue assay. The assay is classed as functional, cell-based.
Assay [4] relates to KB. Nature of the assay: Antiproliferative activity against human KB cells expressing RFC/FRalpha/PCFT after 96 hrs by CellTiter-Blue assay in presence of 200 nM folic acid. The assay is classed as functional, cell-based.
In assay [5] the target is Bifunctional purine biosynthesis protein ATIC (Homo sapiens) (UniProt P31939). Nature of the assay: Inhibition of AICARFTase in human KB cells expressing RFC/FRalpha/PCFT assessed as cell growth inhibition at 1 to 1000 nM after 96 hrs by CellTiter-Blue assay in presence of 320 uM AICA. The assay is classed as cell-based.
Sequence of Bifunctional purine biosynthesis protein ATIC (Homo sapiens) (P31939 whole entry, looked up): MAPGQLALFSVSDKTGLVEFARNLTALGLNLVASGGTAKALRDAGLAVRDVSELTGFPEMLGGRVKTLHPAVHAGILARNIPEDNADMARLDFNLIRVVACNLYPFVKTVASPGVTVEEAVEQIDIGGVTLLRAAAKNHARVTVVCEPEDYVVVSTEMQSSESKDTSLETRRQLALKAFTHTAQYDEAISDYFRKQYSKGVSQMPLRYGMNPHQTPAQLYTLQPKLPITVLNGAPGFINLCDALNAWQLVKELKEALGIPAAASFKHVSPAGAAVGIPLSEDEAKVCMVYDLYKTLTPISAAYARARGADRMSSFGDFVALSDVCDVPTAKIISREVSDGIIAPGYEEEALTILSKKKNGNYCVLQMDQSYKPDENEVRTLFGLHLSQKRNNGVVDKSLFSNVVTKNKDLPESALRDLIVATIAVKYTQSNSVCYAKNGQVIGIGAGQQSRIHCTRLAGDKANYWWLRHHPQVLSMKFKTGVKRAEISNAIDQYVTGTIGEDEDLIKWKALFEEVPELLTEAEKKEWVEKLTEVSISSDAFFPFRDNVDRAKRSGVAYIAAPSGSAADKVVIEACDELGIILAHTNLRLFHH
For assay [6], the target named is T1, GAR transformylase/AICAR transformylase (Homo sapiens) (UniProt P31939+P22102). The following applies: KB, at 1 to 1000 nM.
T1 sequence (P31939 whole entry, looked up, one chain of several): as the sequence (P31939 whole entry, looked up) above
Description: Inhibition of GARFTase/AICARFTase in human KB cells expressing RFC/FRalpha/PCFT assessed as cell growth inhibition at 1 to 1000 nM after 96 hrs by CellTiter-Blue assay in presence of 60 uM adenosine
Assay [7] addresses T1, GAR transformylase/AICAR transformylase (Homo sapiens). The following applies: KB, at 1 to 1000 nM. This is another data set of the same source.
Description: Inhibition of GARFTase/AICARFTase in human KB cells expressing RFC/FRalpha/PCFT assessed as cell growth inhibition at 1 to 1000 nM after 96 hrs by CellTiter-Blue assay in presence of 10 uM thymidine
Assay [8] addresses T2, Trifunctional purine biosynthetic protein adenosine-3 (Homo sapiens, UniProt P22102).
T2 sequence (P22102 whole entry): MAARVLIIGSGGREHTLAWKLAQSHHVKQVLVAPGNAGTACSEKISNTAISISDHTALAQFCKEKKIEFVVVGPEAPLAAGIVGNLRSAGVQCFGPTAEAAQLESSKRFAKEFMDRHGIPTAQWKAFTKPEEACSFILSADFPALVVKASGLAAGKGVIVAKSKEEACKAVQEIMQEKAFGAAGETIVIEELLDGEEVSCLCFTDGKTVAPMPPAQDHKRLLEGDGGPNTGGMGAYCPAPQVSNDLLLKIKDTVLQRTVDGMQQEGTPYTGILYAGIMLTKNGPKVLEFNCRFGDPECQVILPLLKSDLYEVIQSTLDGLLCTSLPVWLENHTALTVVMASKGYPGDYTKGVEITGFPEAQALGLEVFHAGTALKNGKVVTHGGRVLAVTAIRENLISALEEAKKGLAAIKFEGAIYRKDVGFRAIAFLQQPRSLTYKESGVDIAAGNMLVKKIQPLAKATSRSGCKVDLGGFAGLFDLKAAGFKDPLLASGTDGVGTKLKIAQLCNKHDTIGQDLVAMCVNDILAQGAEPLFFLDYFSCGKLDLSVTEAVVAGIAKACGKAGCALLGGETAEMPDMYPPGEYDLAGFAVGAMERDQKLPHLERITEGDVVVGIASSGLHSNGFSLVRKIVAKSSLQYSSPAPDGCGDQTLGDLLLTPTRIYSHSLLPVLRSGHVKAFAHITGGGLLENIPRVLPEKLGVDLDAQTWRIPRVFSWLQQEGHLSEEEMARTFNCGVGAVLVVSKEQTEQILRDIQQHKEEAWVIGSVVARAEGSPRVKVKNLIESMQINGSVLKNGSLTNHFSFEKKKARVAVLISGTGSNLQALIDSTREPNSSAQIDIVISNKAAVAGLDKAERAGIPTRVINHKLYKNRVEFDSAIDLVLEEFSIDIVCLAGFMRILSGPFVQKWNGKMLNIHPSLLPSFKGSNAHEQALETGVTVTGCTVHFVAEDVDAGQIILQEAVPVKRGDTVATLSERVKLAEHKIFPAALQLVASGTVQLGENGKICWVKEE
Nature of the assay: Inhibition of GARFTase in human KB cells expressing RFC/FRalpha/PCFT assessed as incorporation of [U-14C]-glycine into [14C]-formyl glycinamide ribonucleotide incubated for 1 hr followed by [U-14C]-glycine addition measured after 16 hrs. The assay is classed as cell-based.

Turning to `Nc1nc2[nH]cc(CCCCCc3ccc(C(=O)N[C@@H](CCC(=O)O)C(=O)O)s3)c2c(=O)[nH]1`, the negative-log IC50 (pIC50) is less than 6.00 in assay [1], less than 6.00 in assay [2] and 7.38 in assay [3]. Also, the outcome in assay [4] was inactive. Further, the inhibition result in assay [5] and in assay [6] was “inactive” throughout. Further, the inhibition entry in assay [7] was “Active”.
`Nc1nc2[nH]cc(CCCc3ccc(C(=O)N[C@@H](CCC(=O)O)C(=O)O)s3)c2c(=O)[nH]1`: the pIC50 in assay [1] is less than 6.00; in assay [2], less than 6.00; in assay [3], 6.68. For the same molecule, the inhibition result in assay [5] and in assay [7] was “Active” each time. Besides, the inhibition result in assay [6] is “inactive”.
With `Nc1nc2[nH]cc(CCCCc3ccc(C(=O)N[C@@H](CCC(=O)O)C(=O)O)s3)c2c(=O)[nH]1`, the negative logarithm of the IC50 (pIC50) in assay [1] is less than 6.00; in assay [2], less than 6.00; in assay [3], 7.18; in assay [8], 7.21. Moreover, the result in assay [4] was inactive. Moreover, the inhibition result in assay [5] and in assay [7] was “Active” in each case. The inhibition entry in assay [6] is “inactive”.
As for `Nc1nc2[nH]cc(CCCCCCc3ccc(C(=O)N[C@@H](CCC(=O)O)C(=O)O)s3)c2c(=O)[nH]1`, the negative logarithm of the IC50 (pIC50) in assay [1], in assay [2] and in assay [3] was less than 6.00 in each case.
As for `Nc1nc2[nH]c(CCCCc3ccc(C(=O)N[C@@H](CCC(=O)O)C(=O)O)s3)cc2c(=O)[nH]1`, the pIC50 is less than 6.00 in assay [1], less than 6.00 in assay [2] and 8.50 in assay [8]. Besides, the inhibition entry in assay [5] was “inactive”.
Turning to `Nc1nc2[nH]cc(Cc3ccc(C(=O)N[C@@H](CCC(=O)O)C(=O)O)s3)c2c(=O)[nH]1`, the pIC50 in assay [1], in assay [2] and in assay [3] was less than 6.00 throughout.
For `Nc1nc2[nH]cc(CCc3ccc(C(=O)N[C@@H](CCC(=O)O)C(=O)O)s3)c2c(=O)[nH]1`, the values for the pIC50 in assay [1], in assay [2] and in assay [3] were less than 6.00, less than 6.00 and 6.06, respectively.

One may read the pIC50 as the negative decadic logarithm of the IC50, by convention in mol/L.
